Data as given in article PMC9388626, “STUB1 is an intracellular checkpoint for interferon gamma sensing” (Scientific Reports, 2022).
Values belong to the molecule of their own block, whether it stands above or below them. Peptide text beside a SMILES is read from it.

Tests used:
STUB1 (aa25-aa153) = assay: Thermal shift assay (SYPRO Orange); format: binding; conditions: 100 µM peptide, 10 µM protein, relative to DMSO vehicle, mean ± s.d. from three independent experiments
Excerpt: The SYPRO Orange fluorescent dye (Invitrogen) was used to measure the thermal stability of recombinant STUB1 protein (aa25-aa153). With increasing temperature, binding of the dye molecule to the hydrophobic region of the denatured STUB1 results in an increase in the fluorescence intensity. The midpoint of this transition is termed the Tm. Binding of a ligand, such as peptide, stabilizes the protein and results in a melting temperature shift (ΔTm), which correlates with the binding affinity of the ligand. The thermal shift assay was conducted in a CFX96 real-time PCR detection system (Bio-Rad). A total of 50 µl mixture containing 3.125 × SYPRO Orange (Invitrogen, diluted from 5000 × DMSO stock), 100 µM peptide of interest, and 10 µM protein was prepared in a PCR 8-well strip tube. The samples were heated from 25 to 95 °C in 0.5 °C increment each cycle. The holding time for each cycle is 5 s, after which the fluorescence intensity was measured in Channel 2 (HEX) with Ex/Em: 515–535/560–580 nm. Each independent experiment was performed in technical duplicates.

STUB1 (aa25–aa153) [1] = target: T1, STUB1 (aa25–aa153) (Homo sapiens, UniProt Q9UNE7); assay: Isothermal titration calorimetry; format: binding; conditions: ITC
T1 sequence (Q9UNE7 25-153): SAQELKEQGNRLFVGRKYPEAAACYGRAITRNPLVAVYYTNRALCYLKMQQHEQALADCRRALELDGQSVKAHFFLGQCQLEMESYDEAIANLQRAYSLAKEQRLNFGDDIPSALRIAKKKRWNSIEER
Description: Recombinant STUB1 protein, spanning aa25-aa153, was produced by Nanyang Technological University protein production platform. The purity and identity of the protein was confirmed by mass spectrometry and SDS-PAGE. Synthetic peptides, in a form of N-acetylation and free C-terminal carboxylic acid, were custom made by Chinese Peptide Company (CPC). The purity and identity of the peptides were confirmed by analytic HPLC (≥ 95% purity) and mass spectrometry. Peptides are dissolved in neat DMSO as 10 mM stock solution and diluted thereof for subsequent experiments.
Recombinant STUB1 protein (aa25-aa153) was dialyzed overnight with Slide-A-Lyzer cassette (7 K MWCO, Thermo Scientific, #66373) in 1 L of dialysis buffer (PBS, pH 7.4, 0.5 mM TCEP). The dialyzed protein solution was centrifuged at 15,000 rpm for 10 min at 4 °C to remove potential precipiates. The protein was diluted to 20 µM using the dialysis buffer, followed by the additon of DMSO spike-in (2% final concentration). The synthetic peptides (10 mM in DMSO) were diluted to 200 µM with the dialysis buffer (2% final DMSO concentration). ITC measurements were performed at 25 °C using a Microcal PEAQ-ITC (Malvern Panalytical Inc). An initial injection of 0.4 µl followed by a total of 39 injections of peptide solution (1 µl, 200 µM) were added at an intervals of 2 min into the protein solution (20 µM) while stirring at 750 rpm. The data point produced by the first injection was discarded prior to curve fitting in order to account for the diffusion effect during the equilibration process. The experimental data were fitted to a non-interacting one-site binding model using the analysis software supplied by Microcal, with ΔH (enthalpy change), Ka (association constant) and N (number of binding sites per monomer) as adjustable parameters. Free energy change (ΔG) and entropy contributions (TΔS) were determined from the standard equation: ΔG = ΔH − TΔS = − RT lnKa, where T is the absolute temperature and R = 1.987 cal mol^−1 K^−1.

STUB1 (aa25–aa153) [2] = target: T1, STUB1 (aa25–aa153); assay: Competitive fluorescence polarization assay; format: binding; conditions: 15 nM 5-FAM-[…] tracer, 1 µM STUB1, PBS pH 7.4, 0.01% Tween 20, room temperature, 30 min; mean ± s.e., six replicates from two independent experiments
Description: The assays were performed at room temperature using assay buffer (PBS, pH 7.4, 0.01% v/v Tween 20) and black 384-well non-binding polystyrene microplate (Greiner Bio-one, #784900). The peptide of interest was first diluted (10-point, threefold serial dilution) with the assay buffer on the microplate to have a volume of 10 µl in each well. This was followed by the addition of 10 µl mixture containing 5-FAM-[…]-CO2H (30 nM) and the recombinant STUB1 protein (2 µM). The final assay solution (20 µl) contains 5-FAM-labeled tracer peptide (15 nM), protein (1 µM) and peptide of interest (5 nM to 100 µM). After 30 min incubation in the dark, the microplate was read with TECAN Infinite M1000 PRO (Ex: 470 nm, Em: 520 nm, bandwidth: 5 nm, G-factor = 1.05, gain: optimal, #flashes = 10, settle time = 0 ms, z position: calculated from well). Value of polarization (mP) = 1000 × (G × intensity‖ − intensity ⊥ )/(G × intensity‖ + intensity ⊥ ). Half maximal inhibitory concentration (IC50) was determined by fitting the curve using 4-parameter sigmoidal function in GraphPad Prism. Each independent experiment was performed in technical triplicates.

STUB1 [3] = test system: STUB1; set-up: method as in PMID 31320752; conditions: cited from earlier work
STUB1 [4] = assay: Co-immunoprecipitation of FLAG-mCherry2-peptide and STUB1; format: binding, murine; conditions: spiked into co-IP mixture, room temperature, 4 h
Description: B16-F10 cells stably expressing the biologic were harvested, rinsed with PBS, and lysed with chilled cell lysis buffer (Cell Signaling Technology, #9803) supplemented with Halt protease inhibitor cocktail (Life Technologies, #78430) and phosphatase inhibitor (Sigma-Aldrich, # 4906837001). Cellular lysates were clarified by centrifugation at 15,000 rpm at 4 °C for 15 min. Protein concentration was determined using BCA protein assay kit (Pierce, #23225). For each sample of the co-immunoprecipitation (co-IP), 20 µl of anti-FLAG magnetic beads (Sigma-Aldrich, M8823) was rinsed twice with 0.2 ml PBS, followed by addition of 500 µl diluted cellular lysate (60 µg, 0.12 µg µl^−1). For competitive inhibition, synthetic peptide (SIWWPD) was added into the co-IP mixture. The resulting mixture was rotated at room temperature for 4 h, after which the beads were rinsed with 3 × 0.5 ml PBS to remove the unbound proteins. Bound protein complexes were directly eluted with a 20 µl solution of LDS sample buffer (Life Technologies, NP0008) supplemented with sample reducing agent (Life Technologies, NP0009), followed by heating at 70 °C for 10 min. […] Blotting was similar to the Western Blot section described above. Primary antibodies used were: STUB1/CHIP (Cell Signaling Technology, #2080, 1:1000 dilution), FLAG (Sigma-Aldrich, F1804, 1:1000 dilution). […]

[5] = target: T2, Recombinant STUB1 protein, spanning aa25-aa153 (UniProt Q9UNE7 25-153); assay: thermal shift assay; SYPRO Orange; 100 µM peptide, 10 µM STUB1 aa25-aa153; heated from 25 to 95 °C in 0.5 °C increments; conditions: both partners purified
T2 construct: STUB1 (E3 ligase, also STUB1/CHIP), residues 25-153; also called STUB1 (aa25–aa153); CHIP; source: recombinant, produced by Nanyang Technological University protein production platform; purity and identity confirmed by mass spectrometry and SDS-PAGE
T2 sequence (looked up): T1 sequence (Q9UNE7 25-153)

[6] = target: T2, Recombinant STUB1 protein, spanning …; assay: fluorescence polarisation; competitive; 15 nM tracer 5-FAM-…, 1 µM STUB1 aa25-aa153, peptide of interest 5 nM to 100 µM; room temperature; PBS pH 7.4, 0.01% v/v Tween 20; 30 min incubation; conditions: both partners purified
[7] = target: T2, Recombinant STUB1 protein, spanning …; assay: ITC; peptide (200 µM) injected into STUB1 aa25-aa153 (20 µM); 25 °C; PBS pH 7.4, 0.5 mM TCEP, 2% DMSO; one-site binding model; conditions: both partners purified
[8] = target: T3, Recombinant STUB1 protein, spanning aa25-aa153 (UniProt Q9UNE7 25-153); assay: ITC
T3 chain: T1 sequence (Q9UNE7 25-153)

[9] = target: T3, Recombinant STUB1 protein, spanning …; assay: FP

Molecule: CC[C@H](C)[C@H](NC(=O)[C@H](CO)NC(C)=O)C(=O)N[C@@H](Cc1c[nH]c2ccccc12)C(=O)N[C@@H](Cc1c[nH]c2ccccc12)C(=O)N[C@@H](Cc1c[nH]cn1)C(=O)N[C@@H](CCCNC(=N)N)C(=O)O [SIWWHR] (Ac-SIWWHR-OH)
- ΔTm (STUB1 (aa25-aa153)): -0.1 ± 0.2 °C
- Binding to STUB1 (STUB1 (aa25–aa153) [1]): non-binding
- Kd (STUB1 (aa25–aa153) [1]; PBS pH 7.4, 0.5 mM TCEP, 2% DMSO, 25 °C, 200 µM peptide into 20 µM protein): > 10000 nM
- IC50 (STUB1 (aa25–aa153) [2]): > 100000 nM

Molecule: CC[C@H](C)[C@H](NC(=O)[C@H](CO)NC(C)=O)C(=O)N[C@@H](Cc1c[nH]c2ccccc12)C(=O)N[C@@H](Cc1c[nH]c2ccccc12)C(=O)N1CCC[C@H]1C(=O)N[C@@H](CC(=O)O)C(=O)O [SIWWPD, reference compound] (Ac-SIWWPD-OH)
- ΔTm (STUB1 (aa25-aa153)): 18.3 ± 0.1 °C
- Binding to STUB1 (STUB1 (aa25–aa153) [1]): bound strongly to the protein
- Blocking of STUB1 interaction with HSPA8 (STUB1 [3]): capable of blocking the interaction of STUB1 with HSPA8
- Reversal of co-immunoprecipitation by synthetic peptide (STUB1 [4]): completely reversible in a dose-dependent manner

Further lines, with some results ahead:

- IC50 [6]: 340 nM
- Kd [7]: 14 ± 2 nM
B1: synthetic inhibitory peptide SIWWPD (peptide)
peptide: Ac-SIWWPD-OH
notes: source: synthetic peptide, custom made by Chinese Peptide Company (CPC)
- ΔTm [5]: 18.3 °C

- Kd [8]: 2190 nM
- IC50 [9]: 2700 nM
Molecule: Ac-TIEEVD-OH
